Series [1] is described as follows: Pharmacokinetic (PK) study in mice. The class given is in vivo. To be noted: mouse, plasma, male CD-1 mice, PO 10 mg/kg, solution, vs IV 2 mg/kg, read-out: Fabs, % (percent bioavailability).
Series [2] deals with Jurkat cells. Description: IL-2 release Jurkat assay (anti-CD3/anti-CD28 stimulation, IL-2 ELISA). The class given is cell-based, human. The conditions noted are these: activation with 400 ng/mL aCD3 + 400 ng/mL aCD28, 24 hours.
Series [3] has as its target T1, recombinant HPK1 protein (Homo sapiens, UniProt Q92918).
T1 construct: purchased Promega V6398
T1 sequence (Q92918 1-346 limits assumed): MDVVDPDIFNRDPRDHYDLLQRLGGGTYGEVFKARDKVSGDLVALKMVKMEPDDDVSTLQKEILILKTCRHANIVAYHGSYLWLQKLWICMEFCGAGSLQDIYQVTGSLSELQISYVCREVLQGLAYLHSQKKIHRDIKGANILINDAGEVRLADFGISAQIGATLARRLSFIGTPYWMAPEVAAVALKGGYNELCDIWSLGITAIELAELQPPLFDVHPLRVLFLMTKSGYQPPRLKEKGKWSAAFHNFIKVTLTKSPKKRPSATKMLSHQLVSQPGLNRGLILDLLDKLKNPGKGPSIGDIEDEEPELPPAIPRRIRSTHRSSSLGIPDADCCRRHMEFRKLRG
Description: Primary assay of HPK1 enzymatic activity inhibition (ADP-Glo luminescence). The class given is biochemical. To be noted: recombinant HPK1, MBP substrate, 1 hour at room temperature.

[4] abbreviates: vehicle 80% PEG400, 10% TPGS and 10% ethanol.
[5] abbreviates: Table B: Jurkat, 1.5 μM of tested compounds.
[6] abbreviates: Table C: Jurkat, 6 μM of tested compounds, stimulated vehicle = A.

Molecules are shown by their SMILES. Where two headings read alike, the source gives them in different places.

Take `O=C1CCc2cc(Nc3ncc(-c4nnco4)c(N[C@H](CO)c4ccccc4)n3)ccc2N1` [Compound 19, 6-[[4-[[(1S)-2-hydroxy-1-phenyl-ethyl]amino]-5-(1,3,4-oxadiazol-2-yl)pyrimidin-2-yl]amino]-3,4-dihydro-1H-quinolin-2-one]: the bioavailability in series [1] (setting [4]) is 16.3%. The “IL-2, pg/mL stimulated” value in series [2] (setting [5]) is reported as “B (5.0 pg/mL≤IL-2<25.0 pg/mL)”. Moreover, the IC50 in series [3] was less than 50 nM.

As to `Cc1noc(-c2cnc(Nc3ccc4c(c3)CCC(=O)N4)nc2N[C@H](CO)c2ccccc2)n1` [Compound 86, 6-[[4-[[(1S)-2-hydroxy-1-phenyl-ethyl]amino]-5-(3-methyl-1,2,4-oxadiazol-5-yl)pyrimidin-2-yl]amino]-3,4-dihydro-1H-quinolin-2-one], the bioavailability in series [1] (setting [4]) was found to be 83.6%. The “IL-2, pg/mL stimulated” value in series [2] (setting [5]) was “C (25.0 pg/mL≤IL-2<35.0 pg/mL)”. Further, in series [3], the IC50 was less than 50 nM.

For the compound `CS(=O)(=O)c1ccc(Nc2ncc(-c3nnco3)c(N[C@H](CO)c3ccccc3)n2)cc1F` [Compound 161, (2S)-2-{[2-{[3-fluoro-4-(methylsulfonyl)phenyl]amino}-5-(1,3,4-oxadiazol-2-yl)pyrimidin-4-yl]amino}-2-phenylethanol], in series [1] (vehicle 20% HP-b-CD), the bioavailability stood at 95.1%. Further, the “IL-2, pg/mL stimulated” value in series [2] (setting [6]) is “C (100 pg/mL≤IL-2<150 pg/mL)”. The IC50 in series [3] is less than 50 nM.

In the case of `O=S1(=O)CCCc2cc(Nc3ncc(-c4nnco4)c(N[C@H](CO)c4ccccc4)n3)ccc21` [Compound 228, (2S)-2-[[2-[(1,1-dioxo-3,4-dihydro-2H-thiochromen-6-yl)amino]-5-(1,3,4-oxadiazol-2-yl)pyrimidin-4-yl]amino]-2-phenyl-ethanol], the bioavailability in series [1] (setting [4]) came to 11.4%. For the same compound, in series [2] (Table E: Jurkat, 1.5 μM of tested compounds), the “IL-2, pg/mL stimulated” value is reported as “B (50 pg/mL≤IL-2<100 pg/mL)”. Further, the IC50 in series [3] is less than 50 nM.

`Cc1noc(-c2cnc(Nc3ccc(S(C)(=O)=O)c(C)c3)nc2N[C@H](CO)c2ccccc2)n1` [Compound 252, (2S)-2-{[2-{[3-methyl-4-(methylsulfonyl)phenyl]amino}-5-(3-methyl-1,2,4-oxadiazol-5-yl)pyrimidin-4-yl]amino}-2-phenylethanol]: the bioavailability in series [1] (setting [4]) was 19.9%. Also, the “IL-2, pg/mL stimulated” value in series [2] (setting [6]) is on record as “B (50 pg/mL≤IL-2<100 pg/mL)”. Also, in series [3], the half-maximal inhibitory concentration (IC50) was in the range of 50 to 200 nM.

For `Cc1noc(-c2cnc(Nc3ccc(S(C)(=O)=O)c(F)c3)nc2N[C@H](CO)c2ccccc2)n1` [Compound 270, (2S)-2-{[2-{[3-fluoro-4-(methylsulfonyl)phenyl]amino}-5-(3-methyl-1,2,4-oxadiazol-5-yl)pyrimidin-4-yl]amino}-2-phenylethanol], the bioavailability in series [1] (setting [4]) turned out to be 76.5%. In addition, in series [2] (setting [6]), the “IL-2, pg/mL stimulated” value was “A (IL-2<50 pg/mL)”. The IC50 in series [3] was less than 50 nM.

In the case of `Cc1noc(-c2cnc(Nc3ccc4c(c3)CCNC4=O)nc2N[C@H](CO)c2ccccc2)n1` [Compound 558, 6-[[4-[[(1S)-2-hydroxy-1-phenyl-ethyl]amino]-5-(3-methyl-1,2,4-oxadiazol-5-yl)pyrimidin-2-yl]amino]-3,4-dihydro-2H-isoquinolin-1-one], the bioavailability in series [1] (setting [4]) is 16.3%. The “IL-2, pg/mL stimulated” value in series [2] (Table D: Jurkat, 6 μM of tested compounds, stimulated vehicle = B) is on record as “D (150 pg/mL≤IL-2)”. Besides, in series [3], the IC50 is less than 50 nM.

On to `O=C1NCCc2cc(Nc3ncc(-c4nnco4)c(N[C@H](CO)c4ccccc4)n3)ccc21` [Compound 563, 6-[[4-[[(1S)-2-hydroxy-1-phenyl-ethyl]amino]-5-(1,3,4-oxadiazol-2-yl)pyrimidin-2-yl]amino]-3,4-dihydro-2H-isoquinolin-1-one], for which, in series [1] (setting [4]), the bioavailability is 9.2%. Besides, the IC50 in series [3] is less than 50 nM.

For the compound `Cc1noc(-c2cnc(Nc3ccc4c(c3)CNC4=O)nc2N[C@H](CO)c2ccccc2)n1` [Compound 571, 5-[[4-[[(1S)-2-hydroxy-1-phenyl-ethyl]amino]-5-(3-methyl-1,2,4-oxadiazol-5-yl)pyrimidin-2-yl]amino]isoindolin-1-one], the bioavailability in series [1] (setting [4]) was found to be 8%. In addition, the “IL-2, pg/mL stimulated” value in series [2] (setting [5]) is recorded as “C (25.0 pg/mL≤IL-2<35.0 pg/mL)”. For the same compound, the IC50 in series [3] was less than 50 nM.

`O=C1NCc2cc(Nc3ncc(-c4nc(CN5CCCC5)no4)c(N[C@H](CO)c4ccccc4)n3)ccc21` [Compound 587, 5-[[4-[[(1S)-2-hydroxy-1-phenyl-ethyl]amino]-5-[3-(pyrrolidin-1-ylmethyl)-1,2,4-oxadiazol-5-yl]pyrimidin-2-yl]amino]isoindolin-1-one]: in series [2] (Table G: Jurkat, 1.0 μM of tested compounds), the “IL-2, pg/mL stimulated” value is recorded as “D (150 pg/mL≤IL-2)”. In addition, in series [3], the 50% inhibitory concentration (IC50) is less than 50 nM.

Values taken from patent US20240270699A1, “COMPOUNDS HAVING N-ARYLPYRIMIDIN-2-AMINE DERIVATIVES AS THERAPEUTIC AGENTS” (Lomond Therapeutics, Inc., priority 2021, published 2024).
